Assay results from patent US6713500B2, “Agent for controlling animal diseases caused by parasites” (Ishihara Sangyo Kaisha Ltd., priority 1999, dated 2004).
Where two headings read alike, the source gives them in different places.

Test system: Eimeria tenella of wild type (fresh immature oocysts)
Experiment: microbe, parasite or virus in culture
Type: cell-based
Settings: read-out: Mortality of oocysts (%)
Experimental: Chicks were infested with Eimeria tenella of wild type to obtain fresh immature oocycts. The obtained fresh immature oocysts were exposed to a solution of each test substance having a predetermined concentration for 10 or 30 minutes. The exposed immature oocysts were centrifuged at 1500 min^−1 for 5 minutes, and the supernatant was removed. Then, a 2% potassium bichromate aqueous solution was added, and sporulation was carried out at 25° C. for 4 days, whereupon the ratio of mature oocysts (sporulated oocysts) to the number of observed oocysts, was calculated.
Mortality of oocysts={1−(sporulation rate with exposure to test substance)/(sporulation rate without exposure to test substance)}×100

Row | SMILES | mortality at 0.1 ppm (10 min) [%] | mortality at 1 ppm (10 min) [%] | mortality at 10 ppm (10 min) [%] | mortality at 0.1 ppm (0.5 h) [%] | mortality at 1 ppm (0.5 h) [%] | mortality at 10 ppm (0.5 h) [%] | mortality at 0.1 ppm (10 min, Exposure time: 10 min, 0.1 ppm) [%] | mortality at 1 ppm (10 min, Exposure time: 10 min, 1 ppm) [%] | mortality at 10 ppm (10 min, Exposure time: 10 min, 10 ppm) [%] | mortality at 0.1 ppm (0.5 h, Exposure time: 30 min, 0.1 ppm) [%] | mortality at 1 ppm (0.5 h, Exposure time: 30 min, 1 ppm) [%] | mortality at 10 ppm (0.5 h, Exposure time: 30 min, 10 ppm) [%]
1 | Cc1ccc(-c2c(Cl)nc(C#N)n2S(=O)(=O)N(C)C)cc1 [compound 1, 4-chloro-2-cyano-1-dimethylsulfamoyl-5-(4-methylphenyl)imidazole] | 43.8 | 36.9 | 42.5 | 51.1 | 80.3 | 87.9 | – | – | – | – | – | –
2 | CCc1ccc(C(F)c2c(Cl)nc(C#N)n2S(=O)(=O)N(C)C)cc1 (stereo not drawn) [compound 5, 4-chloro-2-cyano-1-dimethylsulfamoyl-5-(4-ethyl-α-fluorobenzyl)imidazole] | – | – | – | – | – | – | 34.4 | 30 | 75 | 71.3 | 75.2 | 72.6
